Experimental data: publication PMC9820166, “Salicylate Sodium Suppresses Monocyte Chemoattractant Protein-1 Production by Directly Inhibiting Phosphodiesterase 3B in TNF-α-Stimulated Adipocytes” (International Journal of Molecular Sciences, 2022)

Experiments:
[1] = tested on: MCP-1 production in TNF-α-stimulated 3T3-L1 pre-adipocytes; test: Supernatant MCP-1 (ELISA) in TNF-α-stimulated 3T3-L1 pre-adipocytes; assay type: cell-based, mouse
Protocol: (§1) The adipocytes were pretreated with SAS at different concentrations (0–5 mM) for 1 h and then stimulated with mouse TNF-α (40 ng/mL) at 37 °C for 24 h. The MCP-1 level in supernatant (for 3T3-L1 adipocytes) or subnatant (for primary adipocytes) was determined by ELISA according to the manufacturer’s instruction. The concentration of MCP-1 was calculated from the standard curve.

[2] = target: T1, human PDE3A (Homo sapiens, UniProt Q14432); test: PDE3A activity inhibition; assay type: biochemical
T1 construct: purchased Sino Biological Inc
Excerpt: (§2) (Fremont, CA, USA). […] All other reagents were of analytical grade.

[3] = tested on: intracellular cAMP; test: Intracellular cAMP level (ELISA) in TNF-α-stimulated 3T3-L1 pre-adipocytes; assay type: cell-based, mouse; conditions: SAS pretreatment 1 h, TNF-α 40 ng/mL 1 h
Protocol: To determine the time-course change of the TNF-α-induced intracellular cAMP, the 3T3-L1 pre-adipocytes were pretreated with or without SAS (5 mM) for 1 h and then exposed to TNF-α (40 ng/mL) for different time. The cells were lysed, and the changes of intracellular cAMP within 4 h were measured by using a commercial cAMP ELISA kit. To determine the concentration-effect of SAS on intracellular cAMP, 3T3-L1 pre-adipocytes were pretreated with SAS for 1 h at the indicated concentrations and then exposed to TNF-α (40 ng/mL) for further 1 h. The cells were lysed, and the intracellular cAMP level was measured by using a commercial cAMP ELISA kit. The protein concentration of each sample was determined using BCA assay, and the cAMP level of each sample was calculated according to the below formula:cAMP level (pmol/mg protein) = cAMP concentration (pmol/mL)/protein concentration (mg/mL)

[4] = tested on: high-fat diet obese C57BL/6N mice; test: Recruitment of labeled circulating monocytes into adipose tissue of obese mice; assay type: in vivo, mouse; conditions: 45 mg/kg/day subcutaneous for 4 days
Protocol: page 7: Figure S7. SAS impedes the recruitment of circulating monocytes into adipose tissue in vivo (n = 4). (A) The fluorescence intensity of monocytes in adipose tissue. Male C57BL/6N mice (18 g - 20 g) were fed with high-fat diet (HFD) for 18 weeks. The obtained obese mice (36 g - 40 g) with enough epididymal adipose tissues were subcutaneously injected with SAS (45 mg/kg/day) for 4 days. Circulating blood monocytes were labeled by intravenous injection of Fluoresbrite YG Carboxylate Microspheres. Three days later, the mice were euthanatized and adipose tissues around epididymis were collected, 1.5 g of adipose tissue was digested by collagenase I. The fluorescence value of digestive juice was read at λex 441 nm and λem 486 nm. **P < 0.01 vs. HFD alone. (B) The photograph of labeled monocytes in adipose tissues. The sectioned adipose tissue (about 0.5 g) for photograph by a laser confocal microscopy using a 20 × objective. Fluorescence-labeled monocytes were shown in green. SAS, salicylate sodium. (1 picture or pasted object on this page, not shown here)

[5] = tested on: p-ERK; test: Western blot of p-ERK in TNF-α-stimulated 3T3-L1 pre-adipocytes; assay type: cell-based, mouse; conditions: TNF-α 40 ng/mL
Protocol: (§3) The 3T3-L1 pre-adipocytes ([…] per well in 6-well plates) were incubated with SAS for 1 h and then stimulated with mouse TNF-α (40 ng/mL) at 37 °C for indicated time. The total protein was extracted with the mammalian protein extraction kit. For western blot assay, equal amounts of protein samples (30 µg/lane) were separated by 10% sodium dodecyl sulphate-polyacrylamide gel electrophoresis (SDS-PAGE) and then transferred to PVDF membranes. Subsequently, the membranes were blocked with 5% non-fat milk powder in TBST (0.9 mM Tris, 9 mM Tris-HCl, 150 mM NaCl, 0.05% Tween-20) for 2 h at room temperature, and then incubated with various primary antibodies overnight at 4 °C. After being washed by TBST, the membranes were incubated with the corresponding secondary antibodies for 1 h at room temperature. After successive washes, the protein bands were detected using ECL luminescence reagent and photographed by the ChemiDoc XRS+ imaging system (Bio-Rad Technology, Hercules, California, America) or ChemiScope 6000 Exp (Clinx Science Instruments Co., Shanghai, China).

[6] = tested on: p-p38; test: Western blot of p-p38 in TNF-α-stimulated 3T3-L1 pre-adipocytes; assay type: cell-based, mouse; conditions: TNF-α 40 ng/mL
Protocol: as §3

[7] = tested on: MCP-1 production in TNF-α-stimulated 3T3-L1 mature adipocytes; test: Supernatant MCP-1 (ELISA) in TNF-α-stimulated 3T3-L1 mature adipocytes; assay type: cell-based, mouse; conditions: SAS 0–5 mM pretreatment 1 h, TNF-α 40 ng/mL 24 h
Protocol: The 3T3-L1 pre-adipocytes were cultured and differentiated into mature adipocytes, as previously described, with slight modification. The cells were maintained in M1 medium (DMEM supplemented with 10% FBS, 1 mM sodium pyruvate, 4 mM glutamine and 1% penicillin-streptomycin solution) to reach confluence. Approximately 2 days later (termed day 0), the medium was replaced with M2 medium (M1 medium supplemented with 1.5 μg/mL insulin, 1 μM dexamethasone, 0.5 mM IBMX and 2 μM rosiglitazone). Two days later, the medium was then changed to M3 medium (M1 medium supplemented with 1.5 μg/mL insulin). Two days later, the medium was replaced with M2 for another 2 days. From day 6, the cells were maintained in M3 medium with a medium change every day. About 8–10 days later, a microscope could observe a lot of lipid droplets and the mature adipocytes were obtained.
as §1

[8] = tested on: PKA; test: Intracellular PKA activity (PepTag assay) in TNF-α-stimulated 3T3-L1 pre-adipocytes; assay type: cell-based, mouse; conditions: SAS pretreatment 1 h, TNF-α 40 ng/mL 1 h
Protocol: The 3T3-L1 pre-adipocytes were pretreated with SAS for 1 h and then stimulated with TNF-α (40 ng/mL) for further 1 h. The cells were lysed by cold PKA extraction buffer [25 mM Tris-HCl (pH 7.4), 0.5 mM EDTA, 0.5 mM EGTA, 10 mM β-mercaptoethanol, 1 μg/mL leupetin, 1 μg/mL aprotinin and 0.5 mM PMSF] and centrifuged (5000× g) at 4 °C for 10 min. The supernatant was used immediately for PKA activity determination by using a PepTag assay for non-radioactive detection of PKA.

[9] = tested on: MKP-1; test: Western blot of MKP-1 expression in TNF-α-stimulated 3T3-L1 pre-adipocytes; assay type: cell-based, mouse; conditions: 2 h after TNF-α stimulation
Protocol: as §3

[10] = tested on: MCP-1 mRNA; test: MCP-1 mRNA level by RT-qPCR in TNF-α-stimulated 3T3-L1 pre-adipocytes; assay type: cell-based, mouse; conditions: SAS 0–5 mM pretreatment 1 h, TNF-α 40 ng/mL 4 h
Protocol: The adipocytes were pretreated with SAS at different concentrations (0–5 mM) for 1 h and then stimulated with mouse TNF-α (40 ng/mL) at 37 °C for 4 h. The total mRNA was isolated from 3T3-L1 pre-adipocytes by Trizol reagent according to the manufacturer’s instruction. Reverse transcription reactions were conducted by using M-MuLV first strand cDNA synthesis kit. The RT-qPCR analyses were performed on a BIOER Fluorescent Quantitative Detection System (Bioer Technology, Hangzhou, China). The procedure condition was as follows: 95 °C for 30 s, 95 °C for 5 s with 40 cycles, and 62 °C for 30 s. The comparative Ct method (2^−ΔΔCt) was used to analyze the relative intensities. The primer sequences for MCP-1 were as follows: 5′-[…]-3′ (forward) and 5′-[…]-3′ (reverse). The primer sequences for β-actin were as follows: 5′-[…]-3′ (forward) and 5′-[…]-3′ (reverse).

[11] = tested on: MCP-1 mRNA stability; test: MCP-1 mRNA stability assay (actinomycin D); assay type: cell-based, mouse; conditions: SAS 5 mM, TNF-α 40 ng/mL 2 h then actinomycin D 5 ug/mL
Protocol: The mRNA stability assay was performed as described previously with modification. The 3T3-L1 pre-adipocytes were stimulated with TNF-α (40 ng/mL) for 2 h, and then treated with actinomycin D (5 ug/mL). SAS (5 mM) was added at different time points (0, 0.5, 2, 4 h). The total RNA were harvested, and the MCP-1 mRNA levels were measured by RT-qPCR analysis.

[12] = target: T2, recombinant human PDE3B (Homo sapiens, UniProt Q13370); test: PDE3B activity inhibition (PDE-Glo PDE assay kit); assay type: biochemical
T2 construct: purchased SignalChem Lifesciences Corporation
Excerpt: as §2

[13] = target: human PDE4B (Homo sapiens, UniProt Q07343); conditions: read-out: IC50 PDE4B activity
[14] = tested on: MCP-1 production in TNF-α-stimulated mouse primary adipocytes; test: Subnatant MCP-1 (ELISA) in TNF-α-stimulated mouse primary adipocytes; assay type: cell-based; conditions: SAS 0–5 mM pretreatment 1 h, TNF-α 40 ng/mL 24 h
Protocol: The mouse primary adipocytes were isolated from normal lean male C57BL/6N mice, as described previously, with modification. In brief, the mice were anesthetized by an intraperitoneal injection of 2,2,2-tribromoethanol (200 mg/kg) and sacrificed via a dislocated neck. The epididymal fat pads were removed, minced and digested by collagenase I (2 mg/mL in DMEM supplemented with 20 mg/mL BSA) at 37 °C for 1 h. The digested tissue was filtered, and the filtrate was centrifuged at 200× g for 5 min. Remove and discard the underlying pellet (containing pre-adipocytes, fibroblasts, and erythrocytes) and media. Re-suspend the remaining fat layer in 10 mL DMEM and centrifuge at 200× g for 5 min. Repeat this step two additional times. The floating top layer containing primary differentiated mature adipocytes was collected and cultured in DMEM supplemented with 10% fetal bovine serum (FBS).
as §1

[15] = 200 μM pretreatment 1 h, TNF-α 40 ng/mL 24 h

T2 sequence (Q13370 whole entry): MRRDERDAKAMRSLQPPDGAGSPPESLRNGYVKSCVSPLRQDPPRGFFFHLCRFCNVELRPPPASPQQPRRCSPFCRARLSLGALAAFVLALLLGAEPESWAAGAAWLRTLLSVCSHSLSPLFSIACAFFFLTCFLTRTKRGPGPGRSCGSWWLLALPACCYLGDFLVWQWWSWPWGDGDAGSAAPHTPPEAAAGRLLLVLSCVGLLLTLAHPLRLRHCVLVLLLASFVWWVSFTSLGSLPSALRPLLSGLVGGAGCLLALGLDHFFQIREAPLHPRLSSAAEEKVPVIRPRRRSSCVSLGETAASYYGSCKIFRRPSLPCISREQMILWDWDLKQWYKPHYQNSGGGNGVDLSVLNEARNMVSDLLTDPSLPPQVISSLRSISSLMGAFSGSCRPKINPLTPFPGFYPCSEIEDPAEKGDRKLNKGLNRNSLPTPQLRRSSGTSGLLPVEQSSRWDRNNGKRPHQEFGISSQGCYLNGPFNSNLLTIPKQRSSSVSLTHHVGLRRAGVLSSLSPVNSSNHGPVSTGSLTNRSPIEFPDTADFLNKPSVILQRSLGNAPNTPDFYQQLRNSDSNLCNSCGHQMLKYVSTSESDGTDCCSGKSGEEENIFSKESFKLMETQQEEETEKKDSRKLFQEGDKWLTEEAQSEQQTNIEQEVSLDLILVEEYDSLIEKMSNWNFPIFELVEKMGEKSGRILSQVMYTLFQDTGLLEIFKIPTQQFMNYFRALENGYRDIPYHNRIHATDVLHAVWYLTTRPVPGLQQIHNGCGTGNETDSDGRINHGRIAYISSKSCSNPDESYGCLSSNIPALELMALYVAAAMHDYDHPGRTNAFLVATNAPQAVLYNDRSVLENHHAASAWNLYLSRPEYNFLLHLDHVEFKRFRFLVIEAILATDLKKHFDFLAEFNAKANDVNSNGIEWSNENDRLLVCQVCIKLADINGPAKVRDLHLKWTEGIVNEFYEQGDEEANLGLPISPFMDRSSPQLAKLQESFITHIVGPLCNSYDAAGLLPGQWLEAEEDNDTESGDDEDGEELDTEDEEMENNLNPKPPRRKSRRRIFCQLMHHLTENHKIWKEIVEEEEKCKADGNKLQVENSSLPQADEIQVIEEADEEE
Sequence of human PDE4B (Q07343 whole entry): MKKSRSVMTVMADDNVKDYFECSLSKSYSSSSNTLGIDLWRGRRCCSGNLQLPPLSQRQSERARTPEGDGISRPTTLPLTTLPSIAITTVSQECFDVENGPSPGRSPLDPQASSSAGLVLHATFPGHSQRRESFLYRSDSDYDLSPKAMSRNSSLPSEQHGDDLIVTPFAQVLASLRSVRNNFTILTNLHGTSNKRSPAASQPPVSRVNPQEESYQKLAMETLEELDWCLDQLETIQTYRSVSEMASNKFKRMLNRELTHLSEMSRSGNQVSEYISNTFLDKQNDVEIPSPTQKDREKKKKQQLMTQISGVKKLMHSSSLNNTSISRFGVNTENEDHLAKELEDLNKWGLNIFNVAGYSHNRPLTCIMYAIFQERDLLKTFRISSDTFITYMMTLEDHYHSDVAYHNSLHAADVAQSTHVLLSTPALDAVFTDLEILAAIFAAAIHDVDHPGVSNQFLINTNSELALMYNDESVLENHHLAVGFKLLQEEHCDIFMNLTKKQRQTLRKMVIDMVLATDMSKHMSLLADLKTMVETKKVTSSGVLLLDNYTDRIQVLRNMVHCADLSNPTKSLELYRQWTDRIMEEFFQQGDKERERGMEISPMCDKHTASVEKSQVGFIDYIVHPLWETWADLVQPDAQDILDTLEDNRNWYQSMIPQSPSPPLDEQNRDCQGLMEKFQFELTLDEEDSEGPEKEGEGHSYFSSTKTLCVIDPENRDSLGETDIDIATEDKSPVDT
T1 sequence (Q14432 whole entry): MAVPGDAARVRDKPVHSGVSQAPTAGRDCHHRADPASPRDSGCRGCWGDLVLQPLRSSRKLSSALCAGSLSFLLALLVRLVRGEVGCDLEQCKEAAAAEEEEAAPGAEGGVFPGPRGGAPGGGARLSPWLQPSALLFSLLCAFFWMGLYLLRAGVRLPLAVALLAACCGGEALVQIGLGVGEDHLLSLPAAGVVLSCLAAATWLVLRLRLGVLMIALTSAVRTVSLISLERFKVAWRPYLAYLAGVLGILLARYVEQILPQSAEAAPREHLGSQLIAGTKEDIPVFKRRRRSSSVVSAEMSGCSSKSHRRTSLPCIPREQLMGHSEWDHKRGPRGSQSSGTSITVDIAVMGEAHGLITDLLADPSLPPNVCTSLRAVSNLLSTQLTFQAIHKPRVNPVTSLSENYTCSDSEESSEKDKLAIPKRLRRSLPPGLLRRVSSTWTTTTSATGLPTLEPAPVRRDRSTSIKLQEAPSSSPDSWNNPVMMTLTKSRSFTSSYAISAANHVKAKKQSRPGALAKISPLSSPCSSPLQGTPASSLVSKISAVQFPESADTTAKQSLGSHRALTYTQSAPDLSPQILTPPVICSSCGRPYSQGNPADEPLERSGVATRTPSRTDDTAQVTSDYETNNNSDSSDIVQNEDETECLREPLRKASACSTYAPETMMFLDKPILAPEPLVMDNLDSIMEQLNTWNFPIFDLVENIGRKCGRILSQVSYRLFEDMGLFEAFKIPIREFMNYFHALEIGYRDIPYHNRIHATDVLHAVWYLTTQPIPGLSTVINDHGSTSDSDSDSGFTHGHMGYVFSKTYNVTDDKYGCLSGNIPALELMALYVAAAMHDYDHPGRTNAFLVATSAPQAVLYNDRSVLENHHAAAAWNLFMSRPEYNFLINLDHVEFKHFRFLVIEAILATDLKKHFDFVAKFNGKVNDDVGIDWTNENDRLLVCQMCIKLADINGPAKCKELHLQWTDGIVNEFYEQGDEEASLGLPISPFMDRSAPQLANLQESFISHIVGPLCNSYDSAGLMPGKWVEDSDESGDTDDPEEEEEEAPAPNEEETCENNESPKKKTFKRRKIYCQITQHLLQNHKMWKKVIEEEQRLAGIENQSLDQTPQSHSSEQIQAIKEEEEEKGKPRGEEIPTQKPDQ

CN(C(=O)CCCOc1ccc2[nH]c(=O)ccc2c1)C1CCCCC1 [cilostamide]
Effect on MCP-1 production [1, 15]: suppressed the MCP-1 production

NC(=O)c1ncn([C@@H]2O[C@H](CO)[C@@H](O)[C@H]2O)c1N [AICAR]
Effect on MCP-1 production ([1]; 100 μM pretreatment 1 h, TNF-α 40 ng/mL 24 h): did not decrease the MCP-1 production

c1cc(-c2cnn3cc(-c4ccc(OCCN5CCCCC5)cc4)cnc23)ccn1 [Compound C]
Effect of AMPK inhibitor on the MCP-1-lowering effect of SAS ([1]; co-treatment with SAS, TNF-α-stimulated): could not antagonize the effect of SAS

O=S(=O)(NCCNC/C=C/c1ccc(Br)cc1)c1cccc2cnccc12 [H89]
Effect of PKA antagonist on the MCP-1-lowering effect of SAS ([1]; 100 nM, with SAS, TNF-α-stimulated): abolished the effect of SAS on MCP-1

Cc1[nH]c(=O)c(C#N)cc1-c1ccncc1 [milrinone]
Effect on MCP-1 production [1, 15]: suppressed the MCP-1 production

O=C(O)c1ccccc1O [SAS, salicylate sodium]
IC50 [2]: 6 mM | Effect on TNF-α-caused reduction of intracellular cAMP [3]: could prevent this decrease in a concentration-dependent manner | Recruitment of circulating monocytes into adipose tissue [4]: markedly prevented the recruitment of circulating monocytes into the adipose tissue | Effect on p-ERK level [5]: concentration-dependently decrease the levels of p-ERK and p-p38 | Effect on p-p38 level [6]: concentration-dependently decrease the levels of p-ERK and p-p38 | Effect on MCP-1 production (supernatant) [7]: significantly decreased MCP-1 production | Effect on intracellular PKA activity [8]: elevated the intracellular PKA activity | Effect on MKP-1 expression [9]: maintained the expression of MKP-1 at 2 h | Effect on MCP-1 mRNA level [10]: concentration-dependently decreased the MCP-1 mRNA level | Effect on MCP-1 mRNA stability [11]: did not affect the mRNA stability of MCP-1 | IC50 [12]: 13.8 mM | Effect on MCP-1 production (supernatant) ([1]; 3T3-L1 pre-adipocytes, SAS 0–5 mM pretreatment 1 h, TNF-α 40 ng/mL 24 h): significantly decreased MCP-1 production | Effect of SAS on MCP-1 in IKKβ-deficient cells ([1]; IKKβ siRNA knockdown 3T3-L1 pre-adipocytes): did not impact the effect of SAS on MCP-1 | Effect of SAS on MCP-1 in PDE3B-deficient cells ([1]; PDE3B siRNA knockdown 3T3-L1 pre-adipocytes vs scrambled siRNA): almost disappeared | Concentration that impedes MCP-1 expression in adipocytes ([1]; in vitro, adipocytes (Figure 2)): 1.25 to 5 mM | IC50 [13]: 0.81 mM | Effect on MCP-1 production (subnatant) [14]: significantly decreased MCP-1 production

Nc1ncnc2c1ncn2[C@@H]1O[C@@H]2CO[P@@](O)(=S)O[C@H]2[C@H]1O [RP-cAMPS]
Effect of cAMP antagonist on the MCP-1-lowering effect of SAS ([1]; 100 μM, with SAS, TNF-α-stimulated): abolished the effect of SAS on MCP-1
